Experimental data reported in patent US20090156582A1, “Pyrazole Compound” (priority 2005, published 2009).

Target: T1, recombinant GSK3β enzyme (human GSK3β) (Homo sapiens, UniProt P49841)
T1 construct: FLAG (N); made in house; host or cells: Sf-21 insect cells, recombinant baculovirus (pFASTBAC1 / BAC-TO-BAC)
Test: Measurement of GSK3β inhibitory activity
Format: biochemical
Details: glycogen synthase peptide substrate, Kinase Glo luminescence, read-out: IC50 (concentration of test compound needed for 50% inhibition of luminescent intensity), GSK3β inhibitory activity
From the text: Human GSK3β gene was cloned by a PCR method using a primer set:
prepared using human brain cDNA (Clontech; trade name: QUICK-Clone cDNA) as a template and in reference to the base sequence of GSK3β gene registered in GenBank under Accession Number NM_002093.
PCR was done according to the protocol attached to KOD plus DNA polymerase (Toyo Boseki Kabushiki Kaisha). The obtained PCR product was electrophoresed on agarose gel (1%), and 1.2 kb of DNA fragment including GSK3β gene was collected from the gel and then digested with restriction enzymes EcoR I and Sal I. The restriction enzyme-treated DNA was electrophoresed on agarose gel (1%). The obtained DNA fragment was collected, and ligated to the plasmid pFASTBAC1 (Invitrogen), which had been digested with restriction enzyme EcoR I and Sal I, to produce expression plasmid pFB-GSK3B. The base sequence of insertion fragment was confirmed to find that it corresponded to the objective sequence. In addition, virus stock BAC-GSK3B of recombinant Baculovirus was prepared using BAC-TO-BAC Baculovirus Expression System (Invitrogen).
Sf-21 cells (Invitrogen) were seeded on Sf-900 II SFM medium (Invitrogen)(150 ml) containing 10% fetal calf serum at 1×10^6 cells/ml, and cultured at 27° C. for 24 hr. The virus stock […] obtained above of recombinant Baculovirus was added by 150 μl to the obtained culture medium, and the cells were cultured for another 60 hr. The culture medium was centrifuged (3000 rpm, 10 min) to separate the cells, and the cells were washed once with PBS. The cells were suspended in 10 ml of cell lysis buffer (25 mM HEPES (pH 7.5), 1% Triton X, 130 mM sodium chloride, 1 mM EDTA, 1 mM Dithiothreitol, 25 mM β-glycerophosphate, Protease inhibitor Complete (Boehringer), 1 mM Sodium orthovanadate), treated 4 times using a homogenizer (POLYTRON) at 20000 rpm for 30 sec to disrupt the cells. The disrupted solution of cells was centrifuged (40000 rpm, 45 min.), and GSK3β was purified from the obtained supernatant using Anti-FLAG M2 Affinity Gel (Sigma Ltd.).
10 μl of ATP solution (2.5 μM ATP) was added to the obtained mixture, and the mixture was reacted at room temperature for 30 min. Kinase Glo Reagent (Promega) (50 μl) was added to the reaction solution to stop the reaction. After reaction at room temperature for 10 min, the luminescent intensity was measured using ARVO multilabel counter (PerkinElmer Life Sciences). The concentrations of the test compounds needed for 50% inhibition of luminescent intensity (IC50 value) were calculated by PRISM 3.0 (GraphPad Software).

T1 sequence (P49841 whole entry): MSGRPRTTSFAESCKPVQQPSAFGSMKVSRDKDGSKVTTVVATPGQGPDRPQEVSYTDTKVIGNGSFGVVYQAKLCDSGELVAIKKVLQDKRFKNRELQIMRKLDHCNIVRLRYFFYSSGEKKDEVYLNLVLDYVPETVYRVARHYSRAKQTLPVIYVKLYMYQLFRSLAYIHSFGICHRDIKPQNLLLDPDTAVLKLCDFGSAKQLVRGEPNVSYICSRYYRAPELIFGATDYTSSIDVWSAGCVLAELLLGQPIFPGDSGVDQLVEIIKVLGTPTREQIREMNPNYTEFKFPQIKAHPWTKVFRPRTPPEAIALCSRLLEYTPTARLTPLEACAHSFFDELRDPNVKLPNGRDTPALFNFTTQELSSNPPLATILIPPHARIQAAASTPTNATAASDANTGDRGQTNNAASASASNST

| Structure (SMILES) | IC50 [nM] |
| --- | --- |
| O=C(Nc1c[nH]nc1C(=O)NC1CCc2ccccc21)c1ccccn1 (centres unmarked) [Example 340] | 300 |
| O=C(NC1CCCC1)c1n[nH]cc1NC(=O)C1CCCCC1 [compound 063] | < 100 |
| CNC(=O)c1n[nH]cc1NC(=O)C1CCCCC1 [compound 005] | 307 |
| O=C(CC1CCCC1)Nc1c[nH]nc1C(=O)Nc1ccccc1 [compound 081] | 106 |
| CCOCC(=O)Nc1c[nH]nc1C(=O)NCc1ccco1 [Example 147, 4-[(ethoxyacetyl)amino]-N-(2-furylmethyl)-1H-pyrazole-3-carboxamide] | < 100 |
| O=C(Nc1c[nH]nc1C(=O)NCCO)c1ccccn1 [Example 401, N-(3-(((2-hydroxyethyl)amino)carbonyl)-1H-pyrazol-4-yl)pyridine-2-carboxamide] | < 100 |
| COc1ccc(C(=O)Nc2c[nH]nc2C(=O)NC(C)C)cc1 [compound 030] | < 100 |
| O=C(Nc1c[nH]nc1C(=O)NCCCc1ccccc1)c1ccccn1 [Example 342, N-(3-(((3-phenylpropyl)amino)carbonyl)-1H-pyrazol-4-yl)pyridine-2-carboxamide] | < 100 |
| COc1ccc(C(=O)Nc2c[nH]nc2C(=O)NCCc2ccccc2)cc1 [Example 133, 4-[(4-methoxybenoyl)amino]-N-(2-phenylethyl)-1H-pyrazole-3-carboxamide] | < 100 |
| CC(C)NC(=O)c1n[nH]cc1NS(=O)(=O)C[C@]12CCC(CC1=O)C2(C)C [compound 197] | 109 |
| O=C(Nc1c[nH]nc1C(=O)NCc1ccccc1)c1cnccn1 [Example 119, N-{3-[(benzylamino)carbonyl]-1H-pyrazol-4-yl}pyrazine-2-carboxamide] | < 100 |
| O=C(Nc1c[nH]nc1C(=O)NC1CCCCC1)c1ccccn1 [Example 349, N-(3-((cyclohexylamino)carbonyl)-1H-pyrazol-4-yl)pyridine-2-carboxamide] | < 100 |
| Cc1[nH]nc(C(=O)NC2CCCC2)c1NC(=O)c1ccccc1 [Example 378, 4-(benzoylylamino)-N-cyclopentyl-5-methyl-1H-pyrazole-3-carboxamide] | 1000 |
| N#CCNC(=O)c1n[nH]cc1NC(=O)c1ccccn1 [Example 395, N-(3-(((cyanomethyl)amino)carbonyl)-1H-pyrazol-4-yl)pyridine-2-carboxamide] | < 100 |
| CC(=O)Nc1cccc(C(=O)Nc2c[nH]nc2C(=O)NCCS(C)(=O)=O)c1 [Example 382, 4-((3-(acetylamino)benzoyl)amino)-N-(2-(methylsulfonyl)ethyl)-1H-pyrazole-3-carboxamide] | < 100 |
| O=C(Nc1c[nH]nc1C(=O)NCC(F)(F)F)c1ccccn1 [Example 360, N-(3-(((2,2,2-trifluoroethyl)amino)carbonyl)-1H-pyrazol-4-yl)pyridine-2-carboxamide] | < 100 |

| Structure (SMILES) | IC50 [nM] |
| --- | --- |
| O=C(Nc1ccccc1)c1n[nH]cc1NC(=O)C1CCCCC1 [compound 084] | < 100 |
| O=C(Nc1c[nH]nc1C(=O)NCCc1ccccc1)c1cnccn1 [Example 141] | < 100 |
| CC(=O)Nc1cccc(C(=O)Nc2c[nH]nc2C(=O)NCC(F)(F)F)c1 [Example 375, 4-((3-(acetylamino)benzoyl)amino)-N-(2,2,2-trifluoroethyl)-1H-pyrazole-3-carboxamide] | < 100 |
| CCOCC(=O)Nc1c[nH]nc1C(=O)NC1CCCC1 [compound 064] | < 100 |
| O=C(Nc1c[nH]nc1C(=O)NC1CCCC1)c1ccccn1 [Example 344, N-(3-((cyclopentylamino)carbonyl)-1H-pyrazol-4-yl)pyridine-2-carboxamide] | < 100 |
| CC(=O)Nc1c[nH]nc1C(=O)NCCc1ccccc1 [Example 120, 4-acetylamino-N-(2-phenylethyl)-1H-pyrazole-3-carboxamide] | < 100 |
| O=C(Nc1c[nH]nc1C(=O)Nc1cccc(C(F)(F)F)c1)c1ccccn1 [Example 343, N-(3-(((3-(trifluoromethyl)phenyl)amino)carbonyl)-1H-pyrazol-4-yl)pyridine-2-carboxamide] | < 100 |
| CCOCC(=O)Nc1c[nH]nc1C(=O)NC(C)C [compound 021] | < 100 |
| O=C(Nc1c[nH]nc1C(=O)NCc1ccco1)c1ccc2[nH]ccc2c1 [compound 161] | < 100 |
| O=C(Nc1c[nH]nc1C(=O)NCCNc1ccccc1)c1ccccn1 [Example 399, N-(3-(((2-anilinoethyl)amino)carbonyl)-1H-pyrazol-4-yl)pyridine-2-carboxamide] | < 100 |
| O=C(CC1CCCC1)Nc1c[nH]nc1C(=O)NCCc1ccccc1 [Example 121, 4-[(cyclopentylacetyl)amino]-N-(2-phenylethyl)-1H-pyrazole-3-carboxamide] | < 100 |
| CC(C)NC(=O)c1n[nH]cc1NC(=O)Cc1c[nH]c2ccccc12 [compound 026] | 169 |
| O=C(NC1CCCC1)c1n[nH]cc1NC(=O)c1c[nH]c2ccccc12 [compound 078] | < 100 |
| O=C(Nc1c[nH]nc1C(=O)NCCc1ccccc1)c1ccc(C(F)(F)F)cc1 [Example 132, N-(2-phenylethyl)-4-{[4-(trifluoromethyl)ben-zoyl]-amino}-1H-pyrazole-3-carboxamide] | 101 |
| CC(C)NC(=O)c1n[nH]cc1NC(=O)/C=C/c1ccccc1 [compound 023] | < 100 |

The next lines start with the values.

| IC50 [nM] | Structure (SMILES) |
| --- | --- |
| < 100 | O=C(/C=C/c1ccccc1)Nc1c[nH]nc1C(=O)NCCc1ccccc1 [Example 127, N-(2-phenylethyl)-4-{[(2E)-3-phenylprop-2-enoyl]amino}-1H-pyrazole-3-carboxamide] |
| < 100 | N#CCCNC(=O)c1n[nH]cc1NC(=O)c1ccccn1 [Example 358, N-(3-(((2-cyanoethyl)amino)carbonyl)-1H-pyrazol-4-yl)pyridine-2-carboxamide] |
| < 100 | COc1ccc(C(=O)Nc2c[nH]nc2C(=O)NCc2ccccc2)cc1 [Example 112, N-benzyl-4-[(4-methoxybenzoyl)amino]-1H-pyrazole-3-carboxamide] |
| < 100 | CNC(=O)c1n[nH]cc1NC(=O)COc1ccccc1 [compound 004] |
| < 100 | COc1cccc(C(=O)Nc2c[nH]nc2C(=O)NCCC#N)c1 [Example 414, N-(2-cyanoethyl)-4-(3-methoxybenzoylamino)-1H-pyrazole-3-carboxamide] |
| < 100 | O=C(NCc1ccccc1)c1n[nH]cc1NC(=O)C1CCCCC1 [Example 102, N-benzyl-4-[(cyclohexylcarbonyl)amino]-1H-pyrazole-3-carboxamide] |
| < 100 | O=C(Nc1c[nH]nc1C(=O)NCc1ccc(-c2ccccc2)cc1)c1ccccn1 [Example 354, N-(3-(((biphenyl-4-ylmethyl)amino)carbonyl)-1H-pyrazol-4-yl)pyridine-2-carboxamide] |
| < 100 | CC(C)NC(=O)c1n[nH]cc1NC(=O)C1CCCCC1 [compound 020] |
| 267 | CC(C)NC(=O)c1n[nH]cc1NC(=O)COc1ccccc1 [compound 001, N-isopropyl-4-((phenoxyacetyl)amino)-1H-pyrazole-3-carboxamide] |
| < 100 | N#CCCNC(=O)c1n[nH]cc1NC(=O)C1CCCC1 [Example 411, N-(2-cyanoethyl)-4-((cyclopentylcarbonyl)amino)-1H-pyrazole-3-carboxamide] |
| < 100 | O=C(Nc1c[nH]nc1C(=O)NCCc1ccccc1)c1ccc(OC(F)(F)F)cc1 [Example 138, N-(2-phenylethyl)-4-{[4-(trifluoromethoxy)-benzoyl]amino}-1H-pyrazole-3-carboxamide] |
| < 100 | CC(=O)Nc1cccc(C(=O)Nc2c[nH]nc2C(=O)NCc2ccccc2)c1 [Example 116, 4-{[3-(acetylamino)benzoyl]amino}-N-benzyl-1H-pyrazole-3-carboxamide] |
| 102 | O=C(CC1CCCC1)Nc1c[nH]nc1C(=O)NCc1ccccc1 [compound 099] |
| 269 | O=C(/C=C/c1ccccc1)Nc1c[nH]nc1C(=O)N1CCCC1 [compound 045] |
| < 100 | CC(=O)Nc1c[nH]nc1C(=O)NC1CCCC1 [compound 059] |
| < 100 | Cc1cccc(C(=O)Nc2c[nH]nc2C(=O)NCC(F)(F)F)n1 [Example 389, 6-methyl-N-(3-(((2,2,2-trifluoroethyl)amino)carbonyl)-1H-pyrazol-4-yl)pyridine-2-carboxamide] |
